Laboratory results: the kinase profiling compilation of Christmann-Franck et al. (2016)

Legend:
Experiment in all cases: KINOMEscan competition binding
Settings in all cases: compound 10.0 µM
[1] = biological target: JAK1 JH1 catalytic (human) (UniProt P23458)
[2] = biological target: CDK9 (human) (UniProt P50750)
[3] = biological target: LYN (human) (UniProt P07948)
[4] = biological target: IKBKE (human) (UniProt Q14164)
[5] = biological target: CDK14 (human) (UniProt O94921)
[6] = biological target: PAK3 (human) (UniProt O75914)
Sequence of PAK3 (human) (O75914 whole entry, looked up): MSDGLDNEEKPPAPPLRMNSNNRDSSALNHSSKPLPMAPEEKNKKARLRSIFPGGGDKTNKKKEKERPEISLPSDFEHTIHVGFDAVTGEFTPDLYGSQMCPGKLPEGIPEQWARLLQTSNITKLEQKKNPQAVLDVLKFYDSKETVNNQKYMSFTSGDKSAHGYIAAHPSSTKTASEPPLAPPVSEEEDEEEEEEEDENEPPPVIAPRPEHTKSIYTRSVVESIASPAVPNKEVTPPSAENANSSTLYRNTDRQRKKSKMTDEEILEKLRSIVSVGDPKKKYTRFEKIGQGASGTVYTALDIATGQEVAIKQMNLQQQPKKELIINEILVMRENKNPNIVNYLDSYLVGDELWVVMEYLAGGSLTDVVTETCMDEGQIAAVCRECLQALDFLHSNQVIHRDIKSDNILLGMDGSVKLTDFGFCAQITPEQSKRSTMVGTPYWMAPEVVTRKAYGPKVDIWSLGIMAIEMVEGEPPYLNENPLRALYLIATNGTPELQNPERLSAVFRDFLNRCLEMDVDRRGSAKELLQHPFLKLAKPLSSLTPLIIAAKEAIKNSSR

[7] = biological target: MAPK3 (human) (UniProt P27361)
Sequence of MAPK3 (human) (P27361 whole entry, looked up): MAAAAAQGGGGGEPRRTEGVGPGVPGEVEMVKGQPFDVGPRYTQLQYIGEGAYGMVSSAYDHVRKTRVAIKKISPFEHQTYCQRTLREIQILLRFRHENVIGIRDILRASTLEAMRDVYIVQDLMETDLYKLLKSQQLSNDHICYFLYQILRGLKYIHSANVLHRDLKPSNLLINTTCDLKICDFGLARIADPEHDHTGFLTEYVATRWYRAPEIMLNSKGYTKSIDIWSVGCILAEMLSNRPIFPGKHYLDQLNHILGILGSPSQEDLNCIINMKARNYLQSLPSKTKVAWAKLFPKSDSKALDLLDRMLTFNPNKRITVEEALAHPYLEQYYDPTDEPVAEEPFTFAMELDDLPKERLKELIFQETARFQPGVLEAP

[8] = biological target: PLK4 (human) (UniProt O00444)
[9] = biological target: LCK (human) (UniProt P06239)
[10] = biological target: MAP3K3 (human) (UniProt Q99759)
[11] = biological target: CLK2 (human) (UniProt P49760)
[12] = biological target: CSNK1E (human) (UniProt P49674)
[13] = biological target: IKBKB (human) (UniProt O14920)
[14] = biological target: RIPK2 (human) (UniProt O43353)
Sequence of RIPK2 (human) (O43353 whole entry, looked up): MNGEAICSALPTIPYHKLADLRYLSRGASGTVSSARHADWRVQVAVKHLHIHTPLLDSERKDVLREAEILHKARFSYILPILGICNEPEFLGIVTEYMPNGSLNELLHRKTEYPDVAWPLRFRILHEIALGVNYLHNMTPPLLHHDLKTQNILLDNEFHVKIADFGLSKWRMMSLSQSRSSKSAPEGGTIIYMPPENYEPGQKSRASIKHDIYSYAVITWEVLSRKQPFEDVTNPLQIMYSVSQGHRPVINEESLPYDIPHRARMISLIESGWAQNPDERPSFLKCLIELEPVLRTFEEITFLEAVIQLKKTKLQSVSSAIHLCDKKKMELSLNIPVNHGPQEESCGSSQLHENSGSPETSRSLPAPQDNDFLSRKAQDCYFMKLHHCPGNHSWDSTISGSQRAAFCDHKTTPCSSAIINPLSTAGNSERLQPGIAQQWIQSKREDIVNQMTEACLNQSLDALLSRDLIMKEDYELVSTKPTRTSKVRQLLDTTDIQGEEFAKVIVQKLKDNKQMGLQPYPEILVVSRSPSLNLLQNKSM

[15] = biological target: MAP2K2 (human) (UniProt P36507)
[16] = biological target: PIM2 (human) (UniProt Q9P1W9)
Sequence of PIM2 (human) (Q9P1W9 whole entry, looked up): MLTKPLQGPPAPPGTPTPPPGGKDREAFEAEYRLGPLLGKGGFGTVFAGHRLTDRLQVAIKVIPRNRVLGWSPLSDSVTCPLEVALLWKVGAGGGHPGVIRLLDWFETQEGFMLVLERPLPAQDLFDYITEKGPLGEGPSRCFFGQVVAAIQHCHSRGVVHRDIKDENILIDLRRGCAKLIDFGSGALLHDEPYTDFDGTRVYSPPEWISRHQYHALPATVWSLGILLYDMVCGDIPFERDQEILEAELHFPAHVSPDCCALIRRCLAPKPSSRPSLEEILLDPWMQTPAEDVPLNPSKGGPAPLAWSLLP

[17] = biological target: STK25 (human) (UniProt O00506)
[18] = biological target: RIPK1 (human) (UniProt Q13546)
Sequence of RIPK1 (human) (Q13546 whole entry, looked up): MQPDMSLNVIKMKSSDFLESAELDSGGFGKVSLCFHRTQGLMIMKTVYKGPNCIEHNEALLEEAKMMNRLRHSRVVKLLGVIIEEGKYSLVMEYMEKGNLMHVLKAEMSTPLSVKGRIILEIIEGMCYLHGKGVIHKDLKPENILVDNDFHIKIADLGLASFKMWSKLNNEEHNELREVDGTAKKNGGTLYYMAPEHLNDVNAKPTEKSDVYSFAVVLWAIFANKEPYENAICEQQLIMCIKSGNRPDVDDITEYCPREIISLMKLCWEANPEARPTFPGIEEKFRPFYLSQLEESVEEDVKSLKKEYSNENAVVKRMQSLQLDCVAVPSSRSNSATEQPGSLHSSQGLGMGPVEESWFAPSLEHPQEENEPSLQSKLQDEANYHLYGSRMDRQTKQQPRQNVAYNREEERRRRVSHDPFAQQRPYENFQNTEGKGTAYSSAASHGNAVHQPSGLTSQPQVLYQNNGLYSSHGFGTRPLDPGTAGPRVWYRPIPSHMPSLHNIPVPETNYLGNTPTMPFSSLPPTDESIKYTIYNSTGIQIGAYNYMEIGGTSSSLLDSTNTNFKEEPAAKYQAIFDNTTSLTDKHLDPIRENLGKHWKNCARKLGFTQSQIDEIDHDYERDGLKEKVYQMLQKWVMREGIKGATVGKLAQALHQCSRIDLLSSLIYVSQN

[19] = biological target: CDK5 (human) (UniProt Q00535)
[20] = biological target: PDPK1 (human) (UniProt O15530)
[21] = biological target: MAP4K5 (human) (UniProt Q9Y4K4)
Sequence of MAP4K5 (human) (Q9Y4K4 whole entry, looked up): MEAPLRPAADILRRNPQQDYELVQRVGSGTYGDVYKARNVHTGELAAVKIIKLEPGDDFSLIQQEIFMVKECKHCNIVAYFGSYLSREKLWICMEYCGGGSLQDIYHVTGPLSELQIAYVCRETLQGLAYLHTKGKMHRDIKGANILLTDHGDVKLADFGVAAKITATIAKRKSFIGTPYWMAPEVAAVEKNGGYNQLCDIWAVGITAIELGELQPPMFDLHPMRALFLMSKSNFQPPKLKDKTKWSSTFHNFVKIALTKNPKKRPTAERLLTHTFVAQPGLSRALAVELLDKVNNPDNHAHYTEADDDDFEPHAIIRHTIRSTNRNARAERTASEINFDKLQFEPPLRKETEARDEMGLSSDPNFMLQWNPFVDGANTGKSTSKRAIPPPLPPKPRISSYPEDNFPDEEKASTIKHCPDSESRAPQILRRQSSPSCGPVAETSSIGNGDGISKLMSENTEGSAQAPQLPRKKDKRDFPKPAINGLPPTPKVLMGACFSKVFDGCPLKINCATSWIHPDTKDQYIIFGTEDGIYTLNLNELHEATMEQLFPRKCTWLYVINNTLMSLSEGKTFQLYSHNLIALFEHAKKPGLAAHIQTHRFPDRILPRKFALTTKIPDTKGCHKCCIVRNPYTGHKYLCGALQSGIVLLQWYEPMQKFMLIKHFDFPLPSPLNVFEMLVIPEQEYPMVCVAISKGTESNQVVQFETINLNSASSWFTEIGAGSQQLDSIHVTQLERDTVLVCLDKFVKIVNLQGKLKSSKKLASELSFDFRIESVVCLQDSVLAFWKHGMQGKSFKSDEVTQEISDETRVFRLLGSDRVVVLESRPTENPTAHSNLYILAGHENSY

[22] = biological target: PDGFRB (human) (UniProt P09619)
[23] = biological target: NUAK2 (human) (UniProt Q9H093)
[24] = biological target: SLK (human) (UniProt Q9H2G2)
[25] = biological target: EPHA2 (human) (UniProt P29317)
[26] = biological target: TNIK (human) (UniProt Q9UKE5)
[27] = biological target: MAPK12 (human) (UniProt P53778)
[28] = biological target: RPS6KA2 KD2 (human) (UniProt Q15349)
Sequence of RPS6KA2 KD2 (human) (Q15349 whole entry, looked up): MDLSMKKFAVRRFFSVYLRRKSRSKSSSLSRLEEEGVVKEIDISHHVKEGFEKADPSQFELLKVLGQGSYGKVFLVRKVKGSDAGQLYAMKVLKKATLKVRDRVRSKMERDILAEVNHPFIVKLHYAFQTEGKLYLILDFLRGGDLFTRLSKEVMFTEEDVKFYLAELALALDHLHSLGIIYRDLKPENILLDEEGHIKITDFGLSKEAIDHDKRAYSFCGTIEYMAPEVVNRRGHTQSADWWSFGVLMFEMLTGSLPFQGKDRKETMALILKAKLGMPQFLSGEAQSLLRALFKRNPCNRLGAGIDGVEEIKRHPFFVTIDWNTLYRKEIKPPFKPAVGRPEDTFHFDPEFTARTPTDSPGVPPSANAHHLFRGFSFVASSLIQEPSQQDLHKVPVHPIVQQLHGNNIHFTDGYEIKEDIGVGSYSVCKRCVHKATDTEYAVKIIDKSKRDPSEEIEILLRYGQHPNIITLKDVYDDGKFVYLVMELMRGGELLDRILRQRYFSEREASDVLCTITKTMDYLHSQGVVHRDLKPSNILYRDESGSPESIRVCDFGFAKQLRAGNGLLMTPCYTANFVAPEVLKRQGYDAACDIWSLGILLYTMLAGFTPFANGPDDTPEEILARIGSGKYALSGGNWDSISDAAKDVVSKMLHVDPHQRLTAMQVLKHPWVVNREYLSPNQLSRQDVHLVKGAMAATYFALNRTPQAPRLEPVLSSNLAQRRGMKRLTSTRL

[29] = biological target: AXL (human) (UniProt P30530)
[30] = biological target: EPHA8 (human) (UniProt P29322)
Sequence of EPHA8 (human) (P29322 whole entry, looked up): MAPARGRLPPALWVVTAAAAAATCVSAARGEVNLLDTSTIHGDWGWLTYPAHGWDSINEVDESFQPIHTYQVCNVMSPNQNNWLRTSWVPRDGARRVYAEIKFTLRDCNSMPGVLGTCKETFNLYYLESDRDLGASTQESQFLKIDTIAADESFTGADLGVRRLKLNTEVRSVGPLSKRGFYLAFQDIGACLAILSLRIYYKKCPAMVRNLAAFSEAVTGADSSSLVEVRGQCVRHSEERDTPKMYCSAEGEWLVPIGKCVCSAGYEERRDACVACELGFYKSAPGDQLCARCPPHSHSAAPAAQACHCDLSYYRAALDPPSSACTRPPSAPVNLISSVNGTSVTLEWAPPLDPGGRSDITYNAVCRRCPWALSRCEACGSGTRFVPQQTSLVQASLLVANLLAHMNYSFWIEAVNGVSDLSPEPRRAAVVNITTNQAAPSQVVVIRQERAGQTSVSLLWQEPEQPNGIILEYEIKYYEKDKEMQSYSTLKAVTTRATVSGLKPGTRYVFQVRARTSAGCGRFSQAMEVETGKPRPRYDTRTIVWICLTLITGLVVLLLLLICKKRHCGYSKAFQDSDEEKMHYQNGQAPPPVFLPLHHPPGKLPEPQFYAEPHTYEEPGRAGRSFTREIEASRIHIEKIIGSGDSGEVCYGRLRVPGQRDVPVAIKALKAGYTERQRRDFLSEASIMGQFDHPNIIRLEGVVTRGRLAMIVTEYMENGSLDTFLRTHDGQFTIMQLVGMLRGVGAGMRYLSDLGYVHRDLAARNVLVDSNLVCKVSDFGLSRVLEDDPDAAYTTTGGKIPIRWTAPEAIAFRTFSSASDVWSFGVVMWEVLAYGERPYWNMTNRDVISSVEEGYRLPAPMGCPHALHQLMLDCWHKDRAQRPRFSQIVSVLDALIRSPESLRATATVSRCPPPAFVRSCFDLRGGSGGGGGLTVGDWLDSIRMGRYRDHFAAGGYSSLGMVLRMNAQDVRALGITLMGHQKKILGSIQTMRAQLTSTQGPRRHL

[31] = biological target: TEK (human) (UniProt Q02763)
[32] = biological target: MYO3A (human) (UniProt Q8NEV4)
[33] = biological target: RPS6KA1 KD2 (human) (UniProt Q15418)
[34] = biological target: BRSK2 (human) (UniProt Q8IWQ3)
[35] = biological target: MAPKAPK5 (human) (UniProt Q8IW41)
[36] = biological target: TNNI3K (human) (UniProt Q59H18)
[37] = biological target: NEK5 (human) (UniProt Q6P3R8)
[38] = biological target: SRMS (human) (UniProt Q9H3Y6)
[39] = biological target: PRKD1 (human) (UniProt Q15139)
[40] = biological target: MARK2 (human) (UniProt Q7KZI7)

| kinase still bound, per cent of control [1] | kinase still bound, per cent of control [2] | kinase still bound, per cent of control [3] | kinase still bound, per cent of control [4] | kinase still bound, per cent of control [5] | kinase still bound, per cent of control [6] | kinase still bound, per cent of control [7] | kinase still bound, per cent of control [8] | kinase still bound, per cent of control [9] | kinase still bound, per cent of control [10] | kinase still bound, per cent of control [11] | kinase still bound, per cent of control [12] | kinase still bound, per cent of control [13] | kinase still bound, per cent of control [14] | kinase still bound, per cent of control [15] | kinase still bound, per cent of control [16] | kinase still bound, per cent of control [17] | kinase still bound, per cent of control [18] | kinase still bound, per cent of control [19] | kinase still bound, per cent of control [20] | SMILES | also measured |
| --- | --- | --- | --- | --- | --- | --- | --- | --- | --- | --- | --- | --- | --- | --- | --- | --- | --- | --- | --- | --- | --- |
| 100% | 100% | 100% | 100% | 100% | 100% | 100% | 0.2% | 100% | 100% | 100% | 100% | 100% | 100% | 100% | 100% | 100% | 9.4% | 100% | 100% | C=CC(=O)Nc1cccc(Oc2nc(Nc3ccc(N4CCN(C)CC4)cc3OC)ncc2Cl)c1 | kinase still bound, per cent of control [21]: 100%; kinase still bound, per cent of control [22]: 11%; kinase still bound, per cent of control [23]: 0.3%; kinase still bound, per cent of control [24]: 100%; kinase still bound, per cent of control [25]: 100%; kinase still bound, per cent of control [26]: 100%; kinase still bound, per cent of control [27]: 100%; kinase still bound, per cent of control [28]: 28%; kinase still bound, per cent of control [29]: 100%; kinase still bound, per cent of control [30]: 100%; kinase still bound, per cent of control [31]: 100%; kinase still bound, per cent of control [32]: 28%; kinase still bound, per cent of control [33]: 100%; kinase still bound, per cent of control [34]: 100%; kinase still bound, per cent of control [35]: 100%; kinase still bound, per cent of control [36]: 100%; kinase still bound, per cent of control [37]: 100%; kinase still bound, per cent of control [38]: 100%; kinase still bound, per cent of control [39]: 12%; kinase still bound, per cent of control [40]: 100% |
| 100% | 100% | 100% | 100% | 100% | 100% | 100% | 100% | 100% | 100% | 100% | 100% | 100% | 100% | 100% | 100% | 100% | 100% | 100% | 100% | COc1cc(C(=O)NC2CCN(C)CC2)ccc1Nc1ncc2c(n1)N(C1CCCC1)CCC(=O)N2C(C)C | kinase still bound, per cent of control [21]: 100%; kinase still bound, per cent of control [22]: 100%; kinase still bound, per cent of control [23]: 100%; kinase still bound, per cent of control [24]: 100%; kinase still bound, per cent of control [25]: 100%; kinase still bound, per cent of control [26]: 100%; kinase still bound, per cent of control [27]: 100%; kinase still bound, per cent of control [28]: 100%; kinase still bound, per cent of control [29]: 100%; kinase still bound, per cent of control [30]: 100%; kinase still bound, per cent of control [31]: 100%; kinase still bound, per cent of control [32]: 100%; kinase still bound, per cent of control [33]: 100%; kinase still bound, per cent of control [34]: 0%; kinase still bound, per cent of control [35]: 100%; kinase still bound, per cent of control [36]: 100%; kinase still bound, per cent of control [37]: 100%; kinase still bound, per cent of control [38]: 100%; kinase still bound, per cent of control [39]: 100%; kinase still bound, per cent of control [40]: 100% |

| SMILES | kinase still bound, per cent of control [1] | kinase still bound, per cent of control [2] | kinase still bound, per cent of control [3] | kinase still bound, per cent of control [4] | kinase still bound, per cent of control [5] | kinase still bound, per cent of control [6] | kinase still bound, per cent of control [7] | kinase still bound, per cent of control [8] | kinase still bound, per cent of control [9] | kinase still bound, per cent of control [10] | kinase still bound, per cent of control [11] | kinase still bound, per cent of control [12] | kinase still bound, per cent of control [13] | kinase still bound, per cent of control [14] | kinase still bound, per cent of control [15] | kinase still bound, per cent of control [16] | kinase still bound, per cent of control [17] | kinase still bound, per cent of control [18] | kinase still bound, per cent of control [19] | kinase still bound, per cent of control [20] | also measured |
| --- | --- | --- | --- | --- | --- | --- | --- | --- | --- | --- | --- | --- | --- | --- | --- | --- | --- | --- | --- | --- | --- |
| O=C(NOC[C@H](O)CO)c1ccc(F)c(F)c1Nc1ccc(I)cc1F | 78% | 76% | 72% | 100% | 100% | 100% | 86% | 86% | 88% | 98% | 96% | 100% | 79% | 66% | 0.2% | 75% | 91% | 85% | 100% | 71% | kinase still bound, per cent of control [21]: 69%; kinase still bound, per cent of control [22]: 66%; kinase still bound, per cent of control [23]: 99%; kinase still bound, per cent of control [24]: 93%; kinase still bound, per cent of control [25]: 88%; kinase still bound, per cent of control [26]: 100%; kinase still bound, per cent of control [27]: 100%; kinase still bound, per cent of control [28]: 92%; kinase still bound, per cent of control [29]: 83%; kinase still bound, per cent of control [30]: 94%; kinase still bound, per cent of control [31]: 100%; kinase still bound, per cent of control [32]: 47%; kinase still bound, per cent of control [33]: 84%; kinase still bound, per cent of control [34]: 100%; kinase still bound, per cent of control [35]: 100%; kinase still bound, per cent of control [36]: 51%; kinase still bound, per cent of control [37]: 78%; kinase still bound, per cent of control [38]: 95%; kinase still bound, per cent of control [39]: 100%; kinase still bound, per cent of control [40]: 100% |
